Data on 13 compounds can be found in patent US12291518B2, “Thyroid hormone receptor agonists and use thereof” (Eccogene Inc., priority 2020, dated 2025).

One experiment addresses T1, THR beta-LBD (Homo sapiens, UniProt P10828).
T1 construct: THR beta-LBD (the final concentration is 0.5 nM) was added to the 384-well assay plate; purchased Invitrogen PV4686
T1 sequence (P10828 217-461 limits assumed): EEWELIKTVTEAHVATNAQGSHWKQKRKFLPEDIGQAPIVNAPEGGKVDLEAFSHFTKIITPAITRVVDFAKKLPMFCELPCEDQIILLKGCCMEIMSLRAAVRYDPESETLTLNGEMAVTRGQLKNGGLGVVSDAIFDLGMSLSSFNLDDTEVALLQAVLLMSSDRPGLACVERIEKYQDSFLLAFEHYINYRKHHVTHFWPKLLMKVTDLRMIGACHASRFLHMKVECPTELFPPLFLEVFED
Put plainly: THR-β Coactivator Peptide Recruitment Assay (LanthaScreen TR-FRET). As to conditions: TR-FRET coactivator recruitment, THR beta-LBD 0.5 nM; for EC50: read-out: THRβ EC50. Type of experiment: biochemical. Put shortly: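 Agonist-driven coactivator recruitment read as a 520/495 nm TR-FRET emission ratio after 2 h at room temperature. Final concentrations: THR beta-LBD 0.5 nM, fluorescein-SRC2-2 peptide 0.1 nM, terbium anti-GST antibody 2 nM. EC50 from four-parameter dose-response fitting.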
For orientation: Time-resolved FRET reads energy transfer from a long-lived donor to a nearby acceptor.

In another experiment the target is T2, THR alpha-LBD (Homo sapiens, UniProt P10827).
T2 construct: except that THR alpha-LBD of a final concentration 0.25 nM was used; purchased Invitrogen PV4687
T2 sequence (P10827 163-410 isoform P10827-2 limits assumed, other chains not shown): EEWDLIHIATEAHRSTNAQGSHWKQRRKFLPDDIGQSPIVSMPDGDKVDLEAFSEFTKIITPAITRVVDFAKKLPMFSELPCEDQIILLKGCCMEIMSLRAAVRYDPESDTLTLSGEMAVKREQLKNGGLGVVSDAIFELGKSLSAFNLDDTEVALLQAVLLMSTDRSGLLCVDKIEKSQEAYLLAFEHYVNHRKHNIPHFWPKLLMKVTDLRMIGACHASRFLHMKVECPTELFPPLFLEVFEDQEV
Put plainly: THR-α Coactivator Peptide Recruitment Assay (LanthaScreen TR-FRET). The class given is biochemical. The conditions noted are these: TR-FRET coactivator recruitment, THR alpha-LBD 0.25 nM; for EC50: read-out: THRα EC50. The procedure, abridged:
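TR-FRET coactivator recruitment with THR alpha-LBD at 0.25 nM final, Fluorescein-SRC2-2 peptide 0.1 nM and Tb-labeled anti-GST antibody 2 nM; 2 h incubation at room temperature. 520/495 nm emission ratio fitted to a four-parameter sigmoidal curve to give EC50.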

Each structure is given as a SMILES string.

Usually EC50 stands for the concentration that produces a half-maximal response. For `CS(=O)(=O)N[C@H]1CCN(S(=O)(=O)c2cc(Oc3c(Cl)cc(-n4nc(C(F)F)c(=O)[nH]c4=O)cc3Cl)ccc2O)C1` [Compound 46, N-[(3S)-1-[5-[2,6-dichloro-4-[6-(difluoromethyl)-3,5-dioxo-1,2,4-triazin-2-yl]phenoxy]-2-hydroxy-phenyl]sulfonylpyrrolidin-3-yl]methanesulfonamide], on THR beta-LBD, the “THRβ Emax” value was “B (75~90)” and the EC50 is under 2 nM. Also, on THR alpha-LBD, the “THRα Emax” value is on record as “B (40~85)” and the EC50 was 2 to 200 nM.
Consider `CS(=O)(=O)N[C@@H]1CCN(S(=O)(=O)c2cc(Oc3c(Cl)cc(-n4nc(C(F)F)c(=O)[nH]c4=O)cc3Cl)ccc2O)C1` [Compound 47, (R)-N-(1-((5-(2,6-dichloro-4-(6-(difluoromethyl)-3,5-dioxo-4,5-dihydro-1,2,4-triazin-2(3H)-yl)phenoxy)-2-hydroxyphenyl)sulfonyl)pyrrolidin-3-yl)methanesulfonamide], for which, at THR beta-LBD, the “THRβ Emax” value is “C (<75)” and the concentration giving a half-maximal response (EC50) lay in the range of 2 to 20 nM. For the same compound, on THR alpha-LBD, the “THRα Emax” value is on record as “B (40~85)” and the EC50 was 2 to 200 nM.
For `O=c1[nH]c(=O)n(-c2cc(Cl)c(Oc3ccc(O)c(S(=O)(=O)N[C@@H]4CCN(S(=O)(=O)C5CC5)C4)c3)c(Cl)c2)nc1C(F)F` [Compound 48, (R)-N-(1-(cyclopropylsulfonyl)pyrrolidin-3-yl)-5-(2,6-dichloro-4-(6-(difluoromethyl)-3,5-dioxo-4,5-dihydro-1,2,4-triazin-2(3H)-yl)phenoxy)-2-hydroxybenzenesulfonamide] the same measures were “C (<75)”, 2 to 20 nM, “B (40~85)” and 200 to 1000 nM.
`O=c1[nH]c(=O)n(-c2cc(Cl)c(Oc3ccc(O)c(S(=O)(=O)N[C@H]4CCN(S(=O)(=O)C5CC5)C4)c3)c(Cl)c2)nc1C(F)F` [Compound 49, (S)-N-(1-(cyclopropylsulfonyl)pyrrolidin-3-yl)-5-(2,6-dichloro-4-(6-(difluoromethyl)-3,5-dioxo-4,5-dihydro-1,2,4-triazin-2(3H)-yl)phenoxy)-2-hydroxybenzenesulfonamide]: at THR beta-LBD, the “THRβ Emax” value is listed as “C (<75)” and the EC50 was 2 to 20 nM. At THR alpha-LBD, the “THRα Emax” value is reported as “C (<40)” and the concentration for a half-maximal effect (EC50) lay within 200 to 1000 nM.
For `CS(=O)(=O)N1CC[C@H](NS(=O)(=O)c2cc(Oc3c(Cl)cc(-n4nc(C(F)F)c(=O)[nH]c4=O)cc3Cl)ccc2O)C1` [Compound 50, (S)-5-(2,6-dichloro-4-(6-(difluoromethyl)-3,5-dioxo-4,5-dihydro-1,2,4-triazin-2(3H)-yl)phenoxy)-2-hydroxy-N-(1-(methylsulfonyl)pyrrolidin-3-yl)benzenesulfonamide] the same measures were “C (<75)”, 2 to 20 nM, “B (40~85)” and 200 to 1000 nM.
With `CS(=O)(=O)N1CC[C@@H](NS(=O)(=O)c2cc(Oc3c(Cl)cc(-n4nc(C(F)F)c(=O)[nH]c4=O)cc3Cl)ccc2O)C1` [Compound 51, (R)-5-(2,6-dichloro-4-(6-(difluoromethyl)-3,5-dioxo-4,5-dihydro-1,2,4-triazin-2(3H)-yl)phenoxy)-2-hydroxy-N-(1-(methylsulfonyl)pyrrolidin-3-yl)benzenesulfonamide], at THR beta-LBD, the “THRβ Emax” value was “C (<75)” and the concentration for a half-maximal effect (EC50) lay in the range of 2 to 20 nM. For the same compound, on THR alpha-LBD, the “THRα Emax” value is given as “B (40~85)” and the EC50 is 200 to 1000 nM.
With `O=C(C1CC1)N1CC(NS(=O)(=O)c2cc(Oc3c(Cl)cc(-n4nc(C(F)F)c(=O)[nH]c4=O)cc3Cl)ccc2O)C1` [Compound 52, N-(1-(cyclopropanecarbonyl)azetidin-3-yl)-5-(2,6-dichloro-4-(6-(difluoromethyl)-3,5-dioxo-4,5-dihydro-1,2,4-triazin-2(3H)-yl)phenoxy)-2-hydroxybenzenesulfonamide], on THR beta-LBD, the “THRβ Emax” value was “B (75~90)” and the half-maximal effective concentration (EC50) fell in the range of 20 to 100 nM. For the same compound, on THR alpha-LBD, the “THRα Emax” value was “B (40~85)” and the EC50 was over 1000 nM.
In the same order, the values of `CN(C)C(=O)N1CC(NS(=O)(=O)c2cc(Oc3c(Cl)cc(-n4nc(C(F)F)c(=O)[nH]c4=O)cc3Cl)ccc2O)C1` [Compound 53, 3-((5-(2,6-dichloro-4-(6-(difluoromethyl)-3,5-dioxo-4,5-dihydro-1,2,4-triazin-2(3H)-yl)phenoxy)-2-hydroxyphenyl)sulfonamido)-N,N-dimethylazetidine-1-carboxamide] are “B (75~90)”, 2 to 20 nM, “B (40~85)” and over 1000 nM.
`CS(=O)(=O)N1CC(NS(=O)(=O)c2cc(Oc3c(Cl)cc(-n4nc(C(F)F)c(=O)[nH]c4=O)cc3Cl)ccc2O)C1` [Compound 54, 5-(2,6-dichloro-4-(6-(difluoromethyl)-3,5-dioxo-4,5-dihydro-1,2,4-triazin-2(3H)-yl)phenoxy)-2-hydroxy-N-(1-(methylsulfonyl)azetidin-3-yl)benzenesulfonamide]: at THR beta-LBD, the “THRβ Emax” value is on record as “C (<75)” and the EC50 lay within 20 to 100 nM. At THR alpha-LBD, the “THRα Emax” value is reported as “B (40~85)” and the EC50 fell in the range of 200 to 1000 nM.
For `CCS(=O)(=O)N[C@H]1CCN(S(=O)(=O)c2cc(Oc3c(Cl)cc(-n4nc(C(F)F)c(=O)[nH]c4=O)cc3Cl)ccc2O)C1` [Compound 55, (S)-N-(1-((5-(2,6-dichloro-4-(6-(difluoromethyl)-3,5-dioxo-4,5-dihydro-1,2,4-triazin-2(3H)-yl)phenoxy)-2-hydroxyphenyl)sulfonyl)pyrrolidin-3-yl)ethanesulfonamide] the same measures were “B (75~90)”, under 2 nM, “B (40~85)” and 2 to 200 nM.
For `O=C(N[C@H]1CCN(S(=O)(=O)c2cc(Oc3c(Cl)cc(-n4nc(C(F)F)c(=O)[nH]c4=O)cc3Cl)ccc2O)C1)C1CC1` [Compound 56, (S)-N-(1-((5-(2,6-dichloro-4-(6-(difluoromethyl)-3,5-dioxo-4,5-dihydro-1,2,4-triazin-2(3H)-yl)phenoxy)-2-hydroxyphenyl)sulfonyl)pyrrolidin-3-yl)cyclopropanecarboxamide] the same measures were “C (<75)”, under 2 nM, “B (40~85)” and 2 to 200 nM.
In the case of `CNC(=O)N1CC(NS(=O)(=O)c2cc(Oc3c(Cl)cc(-n4nc(C(F)F)c(=O)[nH]c4=O)cc3Cl)ccc2O)C1` [Compound 57, 3-((5-(2,6-dichloro-4-(6-(difluoromethyl)-3,5-dioxo-4,5-dihydro-1,2,4-triazin-2(3H)-yl)phenoxy)-2-hydroxyphenyl)sulfonamido)-N-methylazetidine-1-carboxamide], on THR beta-LBD, the “THRβ Emax” value is on record as “C (<75)” and the EC50 was in the range of 20 to 100 nM. For the same compound, at THR alpha-LBD, the “THRα Emax” value is reported as “C (<40)” and the EC50 was over 1000 nM.
As to `NC(=O)CNS(=O)(=O)c1cc(Oc2c(Cl)cc(-n3nc(C(F)F)c(=O)[nH]c3=O)cc2Cl)ccc1O` [Compound 58, 2-((5-(2,6-dichloro-4-(6-(difluoromethyl)-3,5-dioxo-4,5-dihydro-1,2,4-triazin-2 (3H)-yl)phenoxy)-2-hydroxyphenyl)sulfonamido)acetamide], on THR beta-LBD, the “THRβ Emax” value was “B (75~90)” and the half-maximal effective concentration (EC50) was under 2 nM. At THR alpha-LBD, the “THRα Emax” value is given as “A (85~110)” and the EC50 lay within 2 to 200 nM.
